Measurements as given in US5268389A, “Thiocarboxylate ester compounds compositions containing the same” (priority 1990, dated 1993).
“And” between values parts separate entries of the source, which are not always exact repeats. Identical values can stand only once.

How the values were obtained:
[1] = system: HIV; assay: microbe, parasite or virus in culture; assay type: cell-based; settings: CEM cells; for EC50: free HIV, read-out: Activity of Anti-HIV Compounds (EC50), CEMV
Experimental: (§1) The compounds of Examples were tested for anti-AIDS activity by subjecting them to standard National Cancer Institute ("NCI") in vitro screening procedures. In carrying out each test, two blanks were run. In the first blank, HIV and a culture of a standard human cell line were incubated together to measure the infectivity of the virus. The viability of the cells was measured after holding for six or seven days. In an "effective" test, most cells were infected before the holding period was complete.
In the second blank, the cell line culture and the compound being tested (but not virus) were incubated together to measure the toxicity of the drug to the cellline. The viability of the cells was measured as a function of concentration of the compound, after holding for seven days. Typically, the cells survive at low compound concentrations, but at some higher concentration, toxicity of the compound is manifested and the cells die. The concentration of the test compound that results in 50% inhibition of cell growth is defined as the IC50.
(§2) Finally, the protective effects of the test compounds were measured. Each cell culture and test compound were incubated with the virus and the viability of the cells was measured as a function of compound concentration after holding for six or seven days. If the compound is active in protecting the cells against the virus, there is typically low cell viability until an effective concentration of the test compound is reached. At this point, cell viability increases steadily toward 100% unless the toxic effect of the compound (as measured in the second blank) takes effect. The concentration of the test compound that results in 50% "control," i.e., a 50% reduction of the viral cytopathic effect, is defined as the EC 50. The therapeutic index TI50 is calculated as IC50/EC50.
(§3) Values of test compound concentrations required for between 20 and 50% reduction of the viral cytopathic effect can also be determined. Such compounds are classified as moderately active.
(§4) The compounds were tested to determine their reduction of HIV cytopathic effect on the human cell lines CEM and MT2. Tests were done by innoculating these cell lines either with free HIV (V) or with a virus Previously cultured with host cells (C). Thus, in Table III the designation CEMV means CEM line cells innoculated with free virus and MT2C means MT2 cells innoculated with cultured viral infected MT2 cells. In some cases the compound was also tested on a cell line together with a sub-effective amount of the known HIV viricide AZT. This is done to test possible synergistic effects. Such a test on the CEM line is denoted CEMZ.
1) T4 lymphocytes (CEM cell line) are exposed to HIV at a virus to cell ratio of approximately 0.05 and plated along with non-infected control cells in 96-well microtiter plates.
2) Each candidate agent is dissolved in dimethyl sulfoxide (unless otherwise indicated), then diluted 1:200 in cell culture medium. Further dilutions (five-fold) are prepared before adding to an equal volume of medium containing either infected or noninfected cells.
3) Cultures are incubated at 37° C. in a 5% carbon dioxide atmosphere for seven days (if six days the CEMV test is identified as CEM-6).
(§5) 4) The tetrazolium salt, XTT, is added to all wells, and cultures are incubated to allow formazan color development by viable cells.
(§6) 5) Individual wells are analyzed spectrophotometrically to quantity formazan production, and in addition are viewed microscopically for detection of viable cells and confirmation of protective activity.
(§7) 6) Drug-treated virus-infected cells are compared with drug-treated non-infected cells and with other appropriate controls (untreated infected and untreated non-infected cells, drug-containing wells without cells, etc.) on the same plate.
7) A determination of activity is made. […]

[2] = system: HIV; assay: Reduction of HIV cytopathic effect, CEM-IW protocol; assay type: cell-based; settings: asterisk: CEMIW protocol; for EC50: CEM cells, drug added before virus, read-out: Activity of Anti-HIV Compounds (EC50), CEM-IW; for Activity class of Anti-HIV Compounds, CEM-IW: inhibition of viral cytopathic effect
Experimental: as §1, §2, §3, §4
The aforementioned identifiers are used when a batch was prepared and samples inserted into the wells. In procedures calling for the addition of the drug (or no drug) and the CEM uninfected cells to each well, followed by the subsequent addition of the HIV virus, the protocol is designated as CEM-IW.
as §5, §6, §7
Asterisks indicate the CEMIW protocol.

[3] = Human immunodeficiency virus 1, CCRF-CEM

SMILES: CCOC(=O)c1cc(NC(=O)C2=C(C)OCCS2)ccc1Cl [Compound 4, Ethyl 2-chloro-5-[[(5,6-dihydro-2-methyl-1,4-oxathiin-3-yl)carbonyl]amino]benzoate]
- EC50 [1]: 0.3 µM and 0.2 µM
- EC50 [1, 3]: 0.4 µM

SMILES: CCCOC(=O)c1cc(NC(=O)C2=C(C)OCCS2)ccc1Cl [Compound 5, Propyl 2-chloro-5-[[(5,6-dihydro-2-methyl-1,4-oxathiin-3-yl)carbonyl]amino]benzoate]
- EC50 [1]: 0.06 µM
- EC50 [1, 3]: 0.07 µM

SMILES: CCCCOC(=O)c1cc(NC(=O)C2=C(C)OCCS2)ccc1Cl [Compound 6, Butyl 2-chloro-5-[[(5,6-dihydro-2-methyl-1,4-oxathiin-3-yl)carbonyl]amino]benzoate]
- EC50 [1, 3]: 0.1 µM

SMILES: CCC1=C(C(=O)Nc2ccc(Cl)c(C(=O)OC(C)C)c2)SCCO1 [Compound 7, 1-Methylethyl 2-chloro-5-[[(2-ethyl-5,6-dihydro-1,4-oxathiin-3-yl)carbonyl]amino]benzoate]
- EC50 [1]: 0.7 µM
- EC50 [1, 3]: 0.84 µM

SMILES: CC1=C(C(=O)Nc2cccc(C#N)c2)SCCO1 [Compound 9, N-(3-Cyanophenyl)-5,6-dihydro-2-methyl-1,4-oxathiin-3-carboxamide]
- Activity class of Anti-HIV Compounds, CEMV ([1]; inhibition of viral cytopathic effect, free virus): MA (moderate activity (MA), that is, inhibition between approximately 20 and 50%)

SMILES: CC1=C(C(=O)Nc2cccc(C(=O)OC(C)C)c2)SCCO1 [Compound 10, 1-Methylethyl 3-[[(5,6-dihydro-2-methyl-1,4-oxathiin-3-yl)carbonyl]amino]benzoate]
- EC50 [1]: 2.9 µM
- EC50 [1, 3]: 3 µM

SMILES: CC1=C(C(=O)Nc2cc(C(=O)OC(C)C)ccc2F)SCCO1 [Compound 13, 1-Methylethyl 3-[[(5,6-dihydro-2-methyl-1,4-oxathiin-3-yl)carbonyl]amino]-4-fluorobenzoate]
- EC50 [1]: 13.2 µM
- EC50 [1, 3]: 15.2 µM

SMILES: CCOC(=O)c1ccc(C)c(NC(=O)C2=C(C)OCCS2)c1 [Compound 14, Ethyl 3-[[(5,6-dihydro-2-methyl-1,4-oxathiin-3-yl)carbonyl]amino]-4-methylbenzoate]
- EC50 [1]: 5.2 µM
- EC50 [1, 3]: 7.6 µM

SMILES: CCCCCOC(=O)c1cc(NC(=O)C2=C(C)OCCS2)ccc1Cl [Compound 15, Pentyl 2-chloro-5-[[(5,6-dihydro-2-methyl-1,4-oxathiin-3-yl)carbonyl]amino]benzoate]
- EC50 [1]: 0.61 µM
- EC50 [1, 3]: 0.82 µM

SMILES: CC(C)OC(=O)c1cc(NC(=O)c2c(Br)c(Br)c(Br)c(Br)c2C(=O)O)c(F)cc1Cl [Compound 20, 2,3,4,5-Tetrabromo-6-[[[4-chloro-2-fluoro-5-[(1-methylethoxy)carbonyl]phenyl]amino]carbonyl]benzoic acid]
- EC50 [1]: 58.7 µM and 69.4 µM and 54.5 µM
- EC50 [1, 3]: 69.5 µM

SMILES: CC1=C(C(=O)Nc2ccccc2C(=O)Nc2ccc(Cl)c(C(=O)OC(C)C)c2)SCCO1 [Compound 147]
- EC50 [2, 3]: 0.59 µM
- EC50 [2]: 0.608 µM

SMILES: CCOC(=O)c1cc(NC(=S)OC(C)C)ccc1Cl [Compound 148]
- Activity class of Anti-HIV Compounds, CEM-IW [2]: MA (moderate activity (MA), that is, inhibition between approximately 20 and 50%)

SMILES: CCOC(=O)c1cc(NC(=S)OC(C)C)ccc1C [Compound 150]
- EC50 [2, 3]: 0.21 µM
- EC50 [2]: 0.23 µM and 0.296 µM and 0.329 µM

SMILES: CCC(CC)OC(=O)c1cc(NC(=S)OC(C)C)ccc1Cl [Compound 151]
- EC50 [2, 3]: 0.0954 µM
- EC50 [2]: 0.0842 µM and 0.0777 µM and 0.0537 µM

SMILES: CCC(C)OC(=O)c1cc(NC(=S)OC(C)C)ccc1Cl (stereo not drawn) [Compound 152]
- EC50 [2, 3]: 0.0717 µM
- EC50 [2]: 0.0417 µM and 0.0368 µM and 0.0571 µM

SMILES: CCCCOC(=O)c1cc(NC(=S)OC(C)C)ccc1Cl [Compound 153]
- EC50 [2, 3]: 0.0719 µM
- EC50 [2]: 0.0426 µM and 0.053 µM

SMILES: CCCOC(=O)c1cc(NC(=S)OC(C)C)ccc1Cl [Compound 154]
- EC50 [2, 3]: 0.0443 µM

SMILES: CC(=O)Oc1ccc(NC(=O)C2=C(C)OCCS2)cc1C(=O)OC(C)C [Compound 157]
- Activity class of Anti-HIV Compounds, CEM-IW [2]: MA (moderate activity (MA), that is, inhibition between approximately 20 and 50%)

SMILES: CCC(=O)Oc1ccc(NC(=O)C2=C(C)OCCS2)cc1C(=O)OC(C)C [Compound 158]
- EC50 [2, 3]: 6.1 µM
- EC50 [2]: 6.77 µM and 4.49 µM and 3.62 µM
